Reference: patent US20230000870A1, “METHODS OF TREATING CANCER IN BIOMARKER-IDENTIFIED PATIENTS WITH INHIBITORS OF CYCLIN-DEPENDENT KINASE 7 (CDK7)” (Syros Pharmaceuticals, Inc., priority 2019, published 2023)

What was measured:
CDK9/Cyclin T1 complex = CDK9/Cyclin T1 complex (Homo sapiens, UniProt P50750); experiment: CDK9 kinase inhibition assay (Caliper/LabChip EZ Reader); assay type: biochemical; details: CDK9/Cyclin T1 8 nM, ATP 2 mM, 15 min at 27° C.
Summary of the method: (§1)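 Caliper/LabChip mobility-shift kinase assays at 27° C. CDK9/Cyclin T1 8 nM with 2 μM 5-FAM-CDK9tide, 10 mM MgCl2, 15 min; CDK12/Cyclin K 50 nM with 5-FAM-CDK9tide 2 μM, 2 mM MgCl2, 3 hr; CDK2/Cyclin E1 0.5 nM with 5-FAM-CDK7tide 2 μM, 2 mM MgCl2, 35 min; CDK7 35 min.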

CDK2/Cyclin E1 complex = CDK2/Cyclin E1 complex (Homo sapiens, UniProt P24941); experiment: CDK2 kinase inhibition assay (Caliper/LabChip EZ Reader); assay type: biochemical; details: CDK2/Cyclin E1 0.5 nM, ATP 2 mM, 35 min at 27° C.
Summary of the method: as §1

HCC70 cells = experiment: Inhibition of proliferation of HCC70 cells (CyQUANT Direct, 72 hour); assay type: cell-based, human; details: read-out: Inhibition of Proliferation of HCC70 Cells (calculated IC50)
Procedure: HCC70 cells: HCC70 cells are a cell line derived from human triple negative breast cancer. Representative compounds of the invention were tested at different concentrations (from 4 μM to […]; 0.5 log serial dilutions) for their ability to inhibit the proliferation of HCC70 cells. Known CDK inhibitors dinaciclib or N-((1S,3R)-3-((5-chloro-4-(1H-indol-3-yl) pyrimidin-2-yl)amino)cyclohexyl)-5-((E)-4-(dimethylamino)but-2-enamido)picolinamide and triptolide were used as positive controls. Cells were grown in ATCC-formulated RPMI-1640 Medium (ATCC 30-2001)+10% FBS. The cells were cultured at 37° C. in a humidified chamber in the presence of 5% CO2. Proliferation assays were conducted over a 72 hour time period. CyQUANT® Direct Cell Proliferation Assay (Life Technologies, Chicago, Ill. USA) was used to assess the anti-proliferative effects of the compounds following manufacturer's directions and utilizing the reagents supplied with the CyQUANT® Direct Cell kit.

[1] = molecular target: T1, CDK12 (aa686-1082)/Cyclin K complex (Homo sapiens, UniProt Q9NYV4); experiment: CDK12 kinase inhibition assay (Caliper/LabChip EZ Reader); assay type: biochemical; details: CDK12 (aa686-1082)/Cyclin K 50 nM, ATP 2 mM, 3 hr at 27° C.
T1 construct: CDK12 (aa686-1082)/Cyclin K complex
T1 sequence (Q9NYV4 686-1082): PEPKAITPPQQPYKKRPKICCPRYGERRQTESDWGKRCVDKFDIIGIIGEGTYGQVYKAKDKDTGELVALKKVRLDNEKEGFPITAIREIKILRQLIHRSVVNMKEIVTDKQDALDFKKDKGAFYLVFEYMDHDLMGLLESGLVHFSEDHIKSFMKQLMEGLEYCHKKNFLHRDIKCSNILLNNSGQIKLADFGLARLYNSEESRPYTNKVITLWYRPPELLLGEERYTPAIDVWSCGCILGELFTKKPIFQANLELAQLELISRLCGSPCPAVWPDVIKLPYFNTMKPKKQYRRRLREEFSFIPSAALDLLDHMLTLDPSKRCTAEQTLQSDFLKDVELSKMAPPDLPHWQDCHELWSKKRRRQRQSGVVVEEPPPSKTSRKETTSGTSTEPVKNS
T1 sequence (O75909 whole entry partner, the tested form may be a part): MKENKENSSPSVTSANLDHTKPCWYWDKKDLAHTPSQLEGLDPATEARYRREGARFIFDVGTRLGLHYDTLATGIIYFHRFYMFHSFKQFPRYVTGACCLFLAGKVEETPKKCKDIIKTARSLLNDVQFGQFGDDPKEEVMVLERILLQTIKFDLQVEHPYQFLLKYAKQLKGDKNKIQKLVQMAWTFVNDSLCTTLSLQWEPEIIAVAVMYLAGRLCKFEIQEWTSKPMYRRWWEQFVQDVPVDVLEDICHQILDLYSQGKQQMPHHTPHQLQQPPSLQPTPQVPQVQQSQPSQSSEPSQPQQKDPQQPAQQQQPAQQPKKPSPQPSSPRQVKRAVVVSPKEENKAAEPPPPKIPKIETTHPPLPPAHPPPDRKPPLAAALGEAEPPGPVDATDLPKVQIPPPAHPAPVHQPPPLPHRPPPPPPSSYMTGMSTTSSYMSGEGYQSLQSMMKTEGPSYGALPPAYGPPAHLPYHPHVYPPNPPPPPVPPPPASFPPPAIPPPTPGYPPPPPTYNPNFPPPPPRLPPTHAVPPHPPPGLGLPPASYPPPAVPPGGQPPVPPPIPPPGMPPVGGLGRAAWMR
Summary of the method: as §1

[2] = molecular target: CDK7/Cyclin H/MAT1 complex (Homo sapiens, UniProt P50613); experiment: CDK7 kinase inhibition assay (Caliper/LabChip EZ Reader); assay type: biochemical; details: CDK7/Cyclin H/MAT1 6 nM, ATP 2 mM, 35 min at 27° C.
CDK7/Cyclin H/MAT1 complex, sequence (P50613 whole entry): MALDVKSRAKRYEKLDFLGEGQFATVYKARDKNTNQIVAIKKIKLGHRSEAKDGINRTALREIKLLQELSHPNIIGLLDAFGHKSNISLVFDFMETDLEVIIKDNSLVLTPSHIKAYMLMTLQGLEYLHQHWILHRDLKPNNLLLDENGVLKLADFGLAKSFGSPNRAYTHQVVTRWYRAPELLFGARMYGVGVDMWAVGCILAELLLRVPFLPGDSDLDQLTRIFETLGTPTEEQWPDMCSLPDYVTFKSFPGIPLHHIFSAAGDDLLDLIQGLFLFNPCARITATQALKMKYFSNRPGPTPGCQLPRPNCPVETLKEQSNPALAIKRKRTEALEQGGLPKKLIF
CDK7/Cyclin H/MAT1 complex, sequence (P51946 whole entry partner): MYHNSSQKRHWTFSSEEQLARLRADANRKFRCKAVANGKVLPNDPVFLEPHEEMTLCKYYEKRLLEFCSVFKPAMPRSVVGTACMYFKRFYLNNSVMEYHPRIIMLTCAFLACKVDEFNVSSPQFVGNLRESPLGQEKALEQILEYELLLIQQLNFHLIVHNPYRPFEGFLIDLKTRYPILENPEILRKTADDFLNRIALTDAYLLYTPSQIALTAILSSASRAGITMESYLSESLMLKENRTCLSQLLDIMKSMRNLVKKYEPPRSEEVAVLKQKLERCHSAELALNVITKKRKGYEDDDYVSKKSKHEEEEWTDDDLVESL
CDK7/Cyclin H/MAT1 complex, sequence (P51948 whole entry partner): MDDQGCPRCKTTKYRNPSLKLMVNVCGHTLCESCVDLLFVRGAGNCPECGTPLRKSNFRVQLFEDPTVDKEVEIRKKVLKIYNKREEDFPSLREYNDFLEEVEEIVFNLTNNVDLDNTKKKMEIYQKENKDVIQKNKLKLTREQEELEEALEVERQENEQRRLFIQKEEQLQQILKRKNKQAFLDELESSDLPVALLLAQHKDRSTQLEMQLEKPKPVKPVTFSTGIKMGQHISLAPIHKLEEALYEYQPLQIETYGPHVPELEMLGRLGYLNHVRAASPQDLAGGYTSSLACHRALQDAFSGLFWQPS
Summary of the method: as §1

A673 cells = experiment: Inhibition of proliferation of A673 cells (CyQUANT, 72 hour); assay type: cell-based, human; details: read-out: Inhibition of Proliferation of A673 Cells (calculated IC50)
Summary of the method: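 Human Ewing's sarcoma A673 cells in DMEM + 10% FBS + 1 mM sodium pyruvate, 37 °C, 5% CO2. Compounds in 0.5-log serial dilutions, stated range 4 μM to […], for 72 h. Anti-proliferative effect read with CyQUANT per kit directions.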

CDK9/Cyclin T1 complex, sequence (P50750 whole entry): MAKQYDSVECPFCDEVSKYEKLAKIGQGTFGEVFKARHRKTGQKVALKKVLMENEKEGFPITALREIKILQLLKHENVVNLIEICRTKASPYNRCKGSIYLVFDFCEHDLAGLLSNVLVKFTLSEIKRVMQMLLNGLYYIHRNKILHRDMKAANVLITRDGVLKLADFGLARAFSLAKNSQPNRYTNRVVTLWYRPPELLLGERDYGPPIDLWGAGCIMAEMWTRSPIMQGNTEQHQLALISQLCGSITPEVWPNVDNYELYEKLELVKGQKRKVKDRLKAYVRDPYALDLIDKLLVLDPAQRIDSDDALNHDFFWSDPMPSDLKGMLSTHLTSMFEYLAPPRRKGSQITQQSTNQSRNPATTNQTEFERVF
CDK9/Cyclin T1 complex, sequence (O60563 whole entry partner): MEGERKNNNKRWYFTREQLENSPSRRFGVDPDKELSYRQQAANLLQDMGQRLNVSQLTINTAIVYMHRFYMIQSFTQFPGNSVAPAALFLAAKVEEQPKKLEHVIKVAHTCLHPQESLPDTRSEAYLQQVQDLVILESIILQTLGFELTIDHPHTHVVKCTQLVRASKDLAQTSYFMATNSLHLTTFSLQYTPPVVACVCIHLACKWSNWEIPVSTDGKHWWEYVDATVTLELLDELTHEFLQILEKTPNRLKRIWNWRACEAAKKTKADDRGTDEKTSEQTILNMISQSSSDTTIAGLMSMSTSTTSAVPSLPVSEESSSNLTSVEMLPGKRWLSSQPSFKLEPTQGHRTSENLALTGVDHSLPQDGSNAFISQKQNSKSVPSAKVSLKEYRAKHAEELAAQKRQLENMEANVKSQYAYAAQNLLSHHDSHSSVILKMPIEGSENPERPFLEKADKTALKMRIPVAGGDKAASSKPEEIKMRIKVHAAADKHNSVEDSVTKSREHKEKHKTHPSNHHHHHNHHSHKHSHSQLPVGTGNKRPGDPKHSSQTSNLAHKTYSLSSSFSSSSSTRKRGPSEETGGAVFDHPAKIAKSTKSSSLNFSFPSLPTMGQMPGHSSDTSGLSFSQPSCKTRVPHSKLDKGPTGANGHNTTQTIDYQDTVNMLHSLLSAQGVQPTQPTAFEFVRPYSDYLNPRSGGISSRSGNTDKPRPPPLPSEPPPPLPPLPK

Structure (SMILES) | IC50 (CDK9/Cyclin T1 complex) [nM] | IC50 (CDK2/Cyclin E1 complex) [nM] | IC50 (HCC70 cells) [nM] | IC50 [1] [nM] | IC50 [2] [nM] | IC50 (A673 cells) [nM]
FC(F)(F)Sc1cnc(NC2CCCNC2)nc1-c1c[nH]c2ccccc12 (centres unmarked) [Compound 305] | 200 to 5000 | 200 to 5000 | 1000 to 5000 | 200 to 5000 | < 20 | 
Cn1cc(-c2ccc3c(-c4nc(N[C@H]5CCCNC5)ncc4C(F)(F)F)c[nH]c3c2)c2cnc(C(F)(F)F)cc21 [Compound 320] |  |  | 1000 to 5000 | 200 to 5000 | 20 to 200 | 
FC(F)(F)c1cnc(N[C@H]2CCCNC2)nc1-c1c[nH]c2cc(-c3ccc4ncsc4c3)ccc12 [Compound 343] | 200 to 5000 | 200 to 5000 | 100 to 1000 | 200 to 5000 | 20 to 200 | 
FC(F)(F)c1cnc(NC2CCCNC2)nc1-c1c[nH]c2cc(-c3ccc4[nH]cnc4c3)ccc12 (centres unmarked) [Compound 313] | 200 to 5000 | 200 to 5000 | 100 to 1000 | 200 to 5000 | < 20 | 
NC(=O)c1cccc(-c2ccc3c(-c4nc(NC5CCCNC5)ncc4C(F)(F)F)c[nH]c3c2)c1 (centres unmarked) [Compound 314] | 200 to 5000 | 200 to 5000 | 100 to 1000 | 200 to 5000 | < 20 | 
CCP(=O)(CC)c1ccc2c(-c3nc(NC4CCCNC4)ncc3C(F)(F)F)c[nH]c2c1 (centres unmarked) [Compound 379] | ≥ 5000 | ≥ 5000 | 1000 to 5000 | ≥ 5000 | 20 to 200 | 
N#Cc1ccc2c(-c3nc(N[C@H]4CCCNC4)ncc3SC(F)F)c[nH]c2c1 [Compound 361] | 200 to 5000 | ≥ 5000 | 100 to 1000 | 200 to 5000 | 20 to 200 | 
CCC1(O)CCN(C(=O)c2ccc3c(-c4nc(NC5CCCNC5)ncc4C(F)(F)F)c[nH]c3c2)C1 (centres unmarked) [Compound 309] | ≥ 5000 | ≥ 5000 | 1000 to 5000 | 200 to 5000 | 20 to 200 | 
CS(=O)(=O)c1c(C#N)ccc2c(-c3nc(NC4CCCNC4)ncc3Cl)c[nH]c12 (centres unmarked) [Compound 294] | 200 to 5000 | 200 to 5000 | < 100 | 200 to 5000 | < 20 | 
CC(=O)c1ccc2c(-c3nc(N[C@H]4CCCNC4)ncc3C(F)(F)F)c[nH]c2c1 [Compound 359] | 200 to 5000 | 200 to 5000 | < 100 | 200 to 5000 | < 20 | 
CC1(O)CCN(C(=O)c2ccc3c(-c4nc(N[C@H]5CCCNC5)ncc4C(F)(F)F)c[nH]c3c2)CC1 [Compound 282] | ≥ 5000 | 200 to 5000 | 100 to 1000 | 200 to 5000 | < 20 | 
N#Cc1cc(-c2ccc3c(-c4nc(NC5CCCNC5)ncc4C(F)(F)F)c[nH]c3c2)ccc1O (centres unmarked) [Compound 315] |  |  | 1000 to 5000 | 200 to 5000 | 20 to 200 | 
CC1CCNCC1Nc1ncc(C(F)(F)F)c(-c2c[nH]c3ccccc23)n1 (centres unmarked) [Compound 372] | 200 to 5000 | 200 to 5000 | 100 to 1000 | 200 to 5000 | 20 to 200 | 
N#Cc1ccc2c(-c3nc(NC4CNCC(F)C4)ncc3C(F)(F)F)c[nH]c2c1 (centres unmarked) [Compound 368] | ≥ 5000 | ≥ 5000 | 1000 to 5000 | 200 to 5000 | 20 to 200 | 
CCOc1ccccc1-c1ccc2c(-c3nc(NC4CCCNC4)ncc3C(F)(F)F)c[nH]c2c1 (centres unmarked) [Compound 327] |  |  | 100 to 1000 | 200 to 5000 | 20 to 200 | 
N#Cc1ccc2c(-c3nc(N[C@@H]4CCC5(CCC5)NC4)ncc3C(F)(F)F)c[nH]c2c1 [Compound 377] | 200 to 5000 | ≥ 5000 | 100 to 1000 | 200 to 5000 | < 20 | 
CC1(C)CNCC(Nc2ncc(Cl)c(-c3c[nH]c4c(S(C)(=O)=O)c(C#N)ccc34)n2)C1 (centres unmarked) [Compound 382] | 200 to 5000 | 200 to 5000 | < 100 | 200 to 5000 | < 20 | 
NS(=O)(=O)c1cccc(-c2ccc3c(-c4nc(NC5CCCNC5)ncc4C(F)(F)F)c[nH]c3c2)c1 (centres unmarked) [Compound 326] |  |  | 100 to 1000 | 200 to 5000 | 20 to 200 | 
O=C(c1ccc2c(-c3nc(NC4CCCNC4)ncc3C(F)(F)F)c[nH]c2c1)N1CCC(O)(C(F)(F)F)C1 (centres unmarked) [Compound 299] | 200 to 5000 | 200 to 5000 | 1000 to 5000 | 200 to 5000 | < 20 | 

Structure (SMILES) | IC50 (CDK9/Cyclin T1 complex) [nM] | IC50 (CDK2/Cyclin E1 complex) [nM] | IC50 (HCC70 cells) [nM] | IC50 [1] [nM] | IC50 [2] [nM] | IC50 (A673 cells) [nM]
FC(F)(F)c1cc2[nH]cc(-c3ccc4c(-c5nc(N[C@H]6CCCNC6)ncc5C(F)(F)F)c[nH]c4c3)c2cn1 [Compound 319] |  |  | 1000 to 5000 | 200 to 5000 | 20 to 200 | 
O=S1(=O)CCn2cc(-c3nc(N[C@H]4CCCNC4)ncc3C(F)(F)F)c3cccc1c32 [Compound 348] | ≥ 5000 | ≥ 5000 | 100 to 1000 | ≥ 5000 | 20 to 200 | 
OCc1cccc(-c2ccc3c(-c4nc(NC5CCCNC5)ncc4C(F)(F)F)c[nH]c3c2)n1 (centres unmarked) [Compound 316] | ≥ 5000 | 200 to 5000 | 100 to 1000 | 200 to 5000 | < 20 | 
Nc1ncc2cccc(-c3ccc4c(-c5nc(NC6CCCNC6)ncc5C(F)(F)F)c[nH]c4c3)c2n1 (centres unmarked) [Compound 322] |  |  | 100 to 1000 | 200 to 5000 | < 20 | 
Nc1nc2c(-c3ccc4c(-c5nc(NC6CCCNC6)ncc5C(F)(F)F)c[nH]c4c3)cccc2s1 (centres unmarked) [Compound 312] |  |  | 100 to 1000 | 200 to 5000 | 20 to 200 | 
FC(F)(F)c1cnc(N[C@H]2CCCNC2)nc1-c1c[nH]c2cc(/C=C/c3ccccc3)ccc12 [Compound 317] |  |  | 1000 to 5000 | 200 to 5000 | 20 to 200 | 
OCCc1cccc(-c2ccc3c(-c4nc(NC5CCCNC5)ncc4C(F)(F)F)c[nH]c3c2)c1 (centres unmarked) [Compound 324] |  |  | 100 to 1000 | 200 to 5000 | 20 to 200 | 
Fc1cncc(-c2ccc3c(-c4nc(NC5CCCNC5)ncc4C(F)(F)F)c[nH]c3c2)c1 (centres unmarked) [Compound 335] |  |  | 100 to 1000 |  |  | 
CCc1cnc(NC2CCCNC2)nc1-c1c[nH]c2c(S(C)(=O)=O)cccc12 (centres unmarked) [Compound 269] |  |  | 100 to 1000 |  |  | 
FC(F)(F)c1cnc(N[C@H]2CCCNC2)nc1-c1c[nH]c2cc(-c3ccc4ccncc4c3)ccc12 [Compound 325] |  |  | 100 to 1000 | 200 to 5000 | 20 to 200 | 
NS(=O)(=O)c1ccc(-c2ccc3c(-c4nc(N[C@H]5CCCNC5)ncc4C(F)(F)F)c[nH]c3c2)cc1 [Compound 331] |  |  | 100 to 1000 | 200 to 5000 | 20 to 200 | 
Cn1ncc2ccc(-c3ccc4c(-c5nc(NC6CCCNC6)ncc5C(F)(F)F)c[nH]c4c3)cc21 (centres unmarked) [Compound 337] |  |  | 100 to 1000 | 200 to 5000 | 20 to 200 | 
OC1CC=C(c2cccc3c(-c4nc(NC5CCCNC5)ncc4C(F)(F)F)c[nH]c23)CC1 (centres unmarked) [Compound 198] | 200 to 5000 | 200 to 5000 |  | 200 to 5000 | < 20 | < 20
CC1(C)CCNC[C@@H]1Nc1ncc(C(F)(F)F)c(-c2c[nH]c3ccccc23)n1 [Compound 209] | ≥ 5000 | ≥ 5000 |  | ≥ 5000 | 200 to 5000 | 20 to 200
CC1CCNCC1Nc1ncc(Cl)c(-c2c[nH]c3ccccc23)n1 (centres unmarked) [Compound 125] | ≥ 5000 | ≥ 5000 |  | ≥ 5000 | 20 to 200 | 200 to 5000
Clc1cnc(NC2CCCNC2)nc1-c1c[nH]c2cccnc12 (centres unmarked) [Compound 146] | ≥ 5000 | ≥ 5000 |  | ≥ 5000 | ≥ 5000 | 20 to 200
O=C(c1ccc2c(-c3nc(NC4CCCNC4)ncc3C(F)(F)F)c[nH]c2c1)N1CCC(O)C1 (centres unmarked) [Compound 204] | ≥ 5000 | ≥ 5000 |  | 200 to 5000 | < 20 | 200 to 5000
CC(C)N1CCCC(Nc2ncc(Cl)c(-c3c[nH]c4ccccc34)n2)C1 (centres unmarked) [Compound 148] | 200 to 5000 | ≥ 5000 |  | 200 to 5000 | 20 to 200 | 20 to 200
CC1CNCC(Nc2ncc(Cl)c(-c3c[nH]c4ccccc34)n2)C1 (centres unmarked) [Compound 201] | 200 to 5000 | 200 to 5000 |  | 20 to 200 | < 20 | < 20
